In ChEMBL document CHEMBL1141959, “Metalloform-selective inhibition: synthesis and structure-activity analysis of Mn(II)-form-selective inhibitors of Escherichia coli methionine aminopeptidase” (Bioorg Med Chem Lett, 2005) one finds IC50 data, which are given here for 34 compounds.

The structures appear in SMILES notation.

Experiment [1] addresses T1, Methionine aminopeptidase (Escherichia coli K-12, UniProt P0AE18).
T1 sequence (P0AE18 whole entry): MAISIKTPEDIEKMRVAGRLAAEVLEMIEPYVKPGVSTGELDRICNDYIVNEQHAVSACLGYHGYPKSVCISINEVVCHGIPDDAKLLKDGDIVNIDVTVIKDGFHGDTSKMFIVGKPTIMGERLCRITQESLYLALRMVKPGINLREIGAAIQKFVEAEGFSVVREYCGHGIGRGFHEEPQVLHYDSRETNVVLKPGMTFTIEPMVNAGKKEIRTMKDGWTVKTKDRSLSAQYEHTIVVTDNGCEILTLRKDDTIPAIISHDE
The experiment in a line: Inhibitory activity against Fe(II) form of Escherichia coli MetAP.

Experiment [2] has as its target T1, Methionine aminopeptidase. Description: Inhibitory activity against Ni(II) form of Escherichia coli MetAP.
Experiment [3] concerns the target T1, Methionine aminopeptidase. The experiment in a line: Inhibitory activity against Mn(II) form of Escherichia coli MetAP.
Experiment [4] has as its target T1, Methionine aminopeptidase. The experiment in a line: Inhibitory activity against Co(II) form of Escherichia coli MetAP.

What is called IC50 is the concentration needed to halve the response being measured. A low value points to higher potency. As for `O=C(O)c1ccc(Cc2ccc(Cl)cc2)o1`, the IC50 turned out to be 138 µM in experiment [1], 89.8 µM in experiment [2], 44.6 µM in experiment [3] and 90.5 µM in experiment [4].

Consider `Cc1cccc(-c2ccc(C(=O)O)o2)c1Cl`, for which the IC50 in experiment [1] worked out at 196 µM; in experiment [2], 188 µM; in experiment [3], 1.71 µM; in experiment [4], 187 µM.

On to `O=C(O)c1ccc(-c2cccc(Cl)c2)o1`, for which the IC50 in experiment [1] is greater than 200 µM; in experiment [2] it was greater than 200 µM; in experiment [3] it was 11.7 µM; in experiment [4], 199 µM.

`NNC(=O)c1ccc(-c2ccccc2Cl)o1`: the IC50 in experiment [1] was 58 µM; in experiment [2] it was 5.78 µM; in experiment [4], 77.1 µM.

As to `Cc1cc([N+](=O)[O-])ccc1-c1ccc(C(=O)O)o1`, the IC50 in experiment [1] stood at 150 µM; in experiment [2], 28.5 µM; in experiment [3], 1.11 µM; in experiment [4], 59.5 µM.

As to `O=Cc1ccccc1-c1ccc(C(=O)O)o1`, the IC50 in experiment [1] is 69.2 µM; in experiment [2], 67.5 µM; in experiment [3], 7.17 µM; in experiment [4] it was 82.6 µM.

Regarding `C=CCCOc1ccccc1-c1ccc(C(=O)O)o1`, the IC50 in experiment [1] was found to be 111 µM; in experiment [2], 113 µM; in experiment [3], 3.65 µM; in experiment [4], 93.5 µM.

For the compound `O=C(O)c1ccc(-c2ccccc2C(F)(F)F)o1`, the IC50 in experiment [1] is 158 µM; in experiment [2] it was 165 µM; in experiment [3], 0.29 µM; in experiment [4], 101 µM.

On to `CONC(=O)c1ccc(-c2ccccc2Cl)o1`, for which the IC50 came out at 178 µM in experiment [1], 51.2 µM in experiment [2], 40 µM in experiment [3] and 57.5 µM in experiment [4].

For the compound `COc1ccc([N+](=O)[O-])cc1-c1ccc(C(=O)O)o1`, the IC50 turned out to be 36.2 µM in experiment [1], 34.5 µM in experiment [2], 0.642 µM in experiment [3] and 24.1 µM in experiment [4].

Take `O=C(O)c1ccc(-c2cc([N+](=O)[O-])ccc2Cl)o1`: the IC50 is 31.1 µM in experiment [1], 38.4 µM in experiment [2], 1.32 µM in experiment [3] and 44.3 µM in experiment [4].

As for `C#CCOc1ccccc1-c1ccc(C(=O)O)o1`, the IC50 was 193 µM in experiment [1], 171 µM in experiment [2], 4.71 µM in experiment [3] and 98.9 µM in experiment [4].

As for `O=C(O)c1ccc(-c2ccccc2O)o1`, the IC50 in experiment [1] was 190 µM; in experiment [2], 153 µM; in experiment [3], 6.92 µM; in experiment [4] it was 127 µM.

Take `COCCOc1ccccc1-c1ccc(C(=O)O)o1`: the IC50 in experiment [1] worked out at 169 µM; in experiment [2], 163 µM; in experiment [3] it was 9.45 µM; in experiment [4], 103 µM.

For the compound `CCOc1ccccc1-c1ccc(C(=O)O)o1`, the IC50 in experiment [1] is greater than 200 µM; in experiment [2], greater than 200 µM; in experiment [3] it was 1.13 µM; in experiment [4], 147 µM.

On to `O=C(O)c1ccc(-c2ccccc2CO)o1`, for which the IC50 in experiment [1] was greater than 200 µM; in experiment [2], 190 µM; in experiment [3], 10 µM; in experiment [4], 189 µM.

As to `O=C(O)c1ccc(Cc2ccccc2Cl)o1`, the IC50 in experiment [1] worked out at 199 µM; in experiment [2] it was 191 µM; in experiment [3] it was 1.22 µM; in experiment [4], 158 µM.

In the case of `O=C(O)c1ccc(-c2cc([N+](=O)[O-])ccc2F)o1`, the IC50 in experiment [1] turned out to be 199 µM; in experiment [2] it was 193 µM; in experiment [3], 14.9 µM; in experiment [4], 157 µM.

`O=C(NO)c1ccc(-c2ccccc2Cl)o1`: the IC50 in experiment [1] came to 0.793 µM; in experiment [2] it was 5.9 µM; in experiment [3], 0.469 µM; in experiment [4], 4.61 µM.

For `O=C(O)c1ccc(-c2ccccc2[N+](=O)[O-])o1`, the IC50 in experiment [1] worked out at 178 µM; in experiment [2], 175 µM; in experiment [3], 1.08 µM; in experiment [4], 120 µM.

Take `O=C(O)c1ccc(-c2ccccc2F)o1`: the IC50 is greater than 200 µM in experiment [1], greater than 200 µM in experiment [2], 13.6 µM in experiment [3] and greater than 200 µM in experiment [4].

As for `O=C(NO)c1ccc(Cc2ccccc2Cl)o1`, the IC50 in experiment [1] was 122 µM; in experiment [2] it was 107 µM; in experiment [3] it was 9.84 µM; in experiment [4], 119 µM.

`O=C(O)c1ccc(Cc2ccccc2)o1`: the IC50 in experiment [1] was 33.7 µM; in experiment [2] it was 67.5 µM; in experiment [3], 33.5 µM; in experiment [4] it was 42.5 µM.

For the compound `OCc1ccc(-c2ccccc2Cl)o1`, the IC50 is greater than 200 µM in experiment [1], 55 µM in experiment [2], 28.1 µM in experiment [3] and 84.2 µM in experiment [4].

With `O=C(O)c1ccc(-c2ccccc2)o1`, the IC50 in experiment [1] is greater than 200 µM; in experiment [2], 195 µM; in experiment [3], 16.3 µM; in experiment [4] it was 188 µM.

As for `N#CCc1ccc(-c2ccccc2Cl)o1`, the IC50 in experiment [1] was 97.7 µM; in experiment [2] it was 56.3 µM; in experiment [3], 47.6 µM; in experiment [4], 57.3 µM.

Take `COC(=O)c1ccc(-c2ccccc2Cl)o1`: the IC50 in experiment [1] is greater than 200 µM; in experiment [2] it was greater than 200 µM; in experiment [3], 166 µM; in experiment [4], greater than 200 µM.

As to `O=C(O)c1ccc(-c2ccc(Cl)cc2)o1`, the IC50 in experiment [1] is greater than 200 µM; in experiment [2], greater than 200 µM; in experiment [3], 12.1 µM; in experiment [4], 180 µM.

On to `NC(=O)c1ccc(-c2ccccc2Cl)o1`, for which the IC50 in experiment [1] is greater than 200 µM; in experiment [2], 137 µM; in experiment [3], 15.9 µM; in experiment [4], 71.4 µM.

For `Nc1ccccc1-c1ccc(C(=O)O)o1`, the IC50 in experiment [1] came out at 95.8 µM; in experiment [2] it was 94.5 µM; in experiment [3] it was 12.5 µM; in experiment [4] it was 56.6 µM.

In the case of `O=C(O)Cc1ccc(Cc2ccccc2Cl)o1`, the IC50 worked out at 177 µM in experiment [1], 117 µM in experiment [2], 0.784 µM in experiment [3] and 77.3 µM in experiment [4].

Regarding `COC(=O)c1ccccc1-c1ccc(C(=O)O)o1`, the IC50 is greater than 200 µM in experiment [1], 194 µM in experiment [2], 3.47 µM in experiment [3] and 160 µM in experiment [4].

As to `O=C(O)c1ccc(-c2ccccc2C(=O)O)o1`, the IC50 was greater than 200 µM in experiment [1], greater than 200 µM in experiment [2], 23.5 µM in experiment [3] and greater than 200 µM in experiment [4].

`O=C(O)c1ccc(-c2ccccc2CF)o1`: the IC50 in experiment [1] was 85.2 µM; in experiment [2] it was 68 µM; in experiment [3], 0.893 µM; in experiment [4], 55.4 µM.
